Here are results for ten compounds from US20070197525A1, “Novel tetracyclic tetrahydrofuran derivatives” (priority 2004, published 2007).

Data set [1] is described as follows: Metabolic stability assay using human liver microsomes. To be noted: 5.0 μM test compound, 15 min incubation, LC-MS. Format: in vitro ADME. As to the method: Compounds according to the invention were tested for metabolic stability in the following assay using human liver microsomes in comparison with prior art compound A, referred to above.
Sub-cellular tissue preparations are made by centrifugal separation after mechanical homogenization of tissue. Tissue is rinsed in ice cold 0.1 M Tris-HCl (pH 7.4) buffer to wash excess blood. Tissue is then blotted dry, weighed and chopped coarsely using surgical scissors. The tissue pieces are homogenized in 3 volumes of ice cold 0.1 M phosphate buffer (pH 7.4) for 7×10 sec. The vessel is kept in/on ice during the homogenization process. Tissue homogenates are centrifuged at 9000×g for 20 minutes at 4° C. The resulting supernatant can be stored at −80° C. and is designated ‘S9’.
The S9-fraction may be centrifuged at 100.000×g for 60 minutes (4° C.). The resulting supernatant is aspirated, aliquoted and designated ‘cytosol’. The pellet is re-suspended in 0.1 M phosphate buffer (pH 7.4) in a final volume of 1 mL per 0.5 g original tissue weight and designated ‘microsomes’.
The incubation is carried out in the following system:
• The reaction is started by the addition of 0.8 mM NADP and incubated for 15 min. • Total assay volume is 250 microliters. • The reaction is stopped by the addition of 2 volumes of DMSO (or acetonitrile). • The samples are centrifuged (10 min, 900×g) and supernatant stored at room temperature (when stopped with DMSO; no longer than 24 h) or −20° C. (when stopped with acetonitrile; no longer than 24 h) before analysis. • The supernatant material is then analysed by LC-MS to determine the extent of metabolism of the test compound in the microsomes
(Liver microsomes are vesicles of endoplasmic reticulum, rich in cytochrome P450 enzymes.)

Data set [2] addresses T1, human cloned 5-HT2A receptor (Homo sapiens, UniProt P28223).
T1 construct: expressed in transfected cells; host or cells: L929 cells
Nature of the data set: In vitro binding affinity for 5-HT2A receptor (radioligand binding). To be noted: human cloned 5-HT2A receptor expressed in L929 cells, [125I]R91150 radioligand; read-out: 5-HT2A (pIC50) (converted). As for the experimental part: (§1) The interaction of the compounds of Formula (I) with 5-HT2A and 5-HT2C receptors was assessed in in vitro radioligand binding experiments. In general, a low concentration of a radioligand with a high binding affinity for the receptor is incubated with a sample of a tissue preparation enriched in a particular receptor (1 to 5 mg tissue) in a buffered medium (0.2 to 5 ml). During the incubation, the radioligands bind to the receptor. When equilibrium of binding is reached, the receptor bound radioactivity is separated from the non-bound radioactivity, and the receptor bound activity is counted. The interaction of the test compounds with the receptors is assessed in competition binding experiments. Various concentrations of the test compound are added to the incubation mixture containing the tissue preparation and the radioligand. Binding of the radioligand will be inhibited by the test compound in proportion to its binding affinity and its concentration. The affinities of the compounds for the 5-HT2 receptors were measured by means of radioligand binding studies conducted with: (a) human cloned 5-HT2A receptor, expressed in L929 cells using [^125I]R91150 as radioligand and (b) human cloned 5-HT2C receptor, expressed in CHO cells using [^3H]mesulergine as radioligand.

Data set [3] addresses T2, human dopamine D2L receptor (Homo sapiens, UniProt P14416).
T2 construct: expressed in transfected cells; host or cells: CHO cells (frozen membranes)
Nature of the data set: In vitro assay for D2 receptor binding. To be noted: for IC50: membranes of human D2L-transfected CHO cells, [3H]Spiperone radioligand, read-out: D2 (pIC50) (converted); for D2/NET: ratio of D2 pIC50 to NET-inhibition pIC50. As for the experimental part: Frozen membranes of human dopamine D2L receptor-transfected CHO cells were thawed, briefly homogenised using an Ultra-Turrax T25 homogeniser and diluted in Tris-HCl assay buffer containing NaCl, CaCl2, MgCl2, KCl (50, 120, 2, 1, and 5 mM respectively, adjusted to pH 7.7 with HCl) to an appropriate protein concentration optimised for specific and non-specific binding. Radioligand [^3H]Spiperone (NEN, specific activity ˜70 Ci/mmol) was diluted in assay buffer at a concentration of 2 nmol/L. Prepared radioligand (50 μl), along with 50 μl of either the 10% DMSO control, Butaclamol (10^−6 mol/l final concentration), or compound of interest, was then incubated (30 min, 37° C.) with 400 μl of the prepared membrane solution. Membrane-bound activity was filtered through a Packard Filtermate harvester onto GF/B Unifilterplates and washed with ice-cold Tris-HCl buffer (50 mM; pH 7.7; 6×0.5 ml). Filters were allowed to dry before adding scintillation fluid and counting in a Topcount scintillation counter. Percentage specific bound and competition binding curves were calculated using S-Plus software (Insightful).

The target of data set [4] is T3, norepinephrine transporter (NET) (Rattus norvegicus, UniProt Q63380).
T3 construct: Cortex from rat brain was collected and homogenised; from tissue; host or cells: rat brain cortex membranes
Nature of the data set: In vitro assay for NET inhibition (radioligand binding, rat brain cortex). To be noted: rat brain cortex membranes, [3H]Nixosetine radioligand; read-out: NET-inhibition (pIC50) (converted). As to the method: Cortex from rat brain was collected and homogenised using an Ultra-Turrax T25 and a Dual homogeniser in ice-cold homogenising buffer containing Tris, NaCl and KCl (50 mM, 120 mM and 5 mM, respectively, pH 7.4) prior to dilution to an appropriate protein concentration optimised for specific and non-specific binding. […] Membrane-bound activity was detected by filtration through a Packard Filtermate harvester onto GF/B Unifilterplates, washed with ice-cold Tris-HCl buffer, containing NaCl and KCl (50 mM, 120 mM and 4 mM; pH 7.4; 6×0.5 ml). Filters were allowed to dry for 24 h before adding scintillation fluid. Scintillation fluid was allowed to saturate filters for 24 h before counting in a Topcount scintillation counter. Percentage specific bound and competition binding curves were calculated using S-Plus software (Insightful).

The target of data set [5] is T4, human cloned 5-HT2C receptor (Homo sapiens, UniProt P28335).
T4 construct: expressed in transfected cells; host or cells: CHO cells
T4 sequence (P28335 33-458): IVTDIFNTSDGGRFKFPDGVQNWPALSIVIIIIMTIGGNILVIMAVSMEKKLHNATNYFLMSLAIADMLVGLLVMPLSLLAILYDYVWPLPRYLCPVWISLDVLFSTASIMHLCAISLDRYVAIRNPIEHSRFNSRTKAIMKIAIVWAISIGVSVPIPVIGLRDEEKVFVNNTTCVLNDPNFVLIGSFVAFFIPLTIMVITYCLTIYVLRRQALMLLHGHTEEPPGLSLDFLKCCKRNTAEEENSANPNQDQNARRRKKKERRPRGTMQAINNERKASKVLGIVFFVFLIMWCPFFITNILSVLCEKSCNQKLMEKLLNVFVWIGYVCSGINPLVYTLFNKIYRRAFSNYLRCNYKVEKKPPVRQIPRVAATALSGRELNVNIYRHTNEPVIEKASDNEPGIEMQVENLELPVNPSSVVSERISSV
Description: In vitro binding affinity for 5-HT2C receptor (radioligand binding). To be noted: human cloned 5-HT2C receptor expressed in CHO cells, [3H]mesulergine radioligand; read-out: 5-HT2C (pIC50) (converted). As for the experimental part:
as §1

The structures appear in SMILES notation.

T3 sequence (Q63380 1-617): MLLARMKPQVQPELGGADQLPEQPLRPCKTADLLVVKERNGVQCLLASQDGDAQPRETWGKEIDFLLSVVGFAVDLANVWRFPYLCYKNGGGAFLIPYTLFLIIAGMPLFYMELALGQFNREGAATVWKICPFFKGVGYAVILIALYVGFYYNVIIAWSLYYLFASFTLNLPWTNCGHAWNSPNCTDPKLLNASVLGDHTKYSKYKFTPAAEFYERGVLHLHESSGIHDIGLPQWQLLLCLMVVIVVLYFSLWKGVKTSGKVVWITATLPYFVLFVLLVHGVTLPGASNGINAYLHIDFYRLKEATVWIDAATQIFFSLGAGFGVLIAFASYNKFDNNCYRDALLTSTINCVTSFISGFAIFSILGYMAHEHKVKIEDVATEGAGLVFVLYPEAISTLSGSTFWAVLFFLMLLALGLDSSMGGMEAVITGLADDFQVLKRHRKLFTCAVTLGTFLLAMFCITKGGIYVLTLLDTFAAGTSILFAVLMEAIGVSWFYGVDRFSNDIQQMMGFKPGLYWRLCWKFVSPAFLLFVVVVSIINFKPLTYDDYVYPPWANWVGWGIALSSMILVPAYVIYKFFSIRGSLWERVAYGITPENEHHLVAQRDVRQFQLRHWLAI
T1 sequence (P28223 whole entry): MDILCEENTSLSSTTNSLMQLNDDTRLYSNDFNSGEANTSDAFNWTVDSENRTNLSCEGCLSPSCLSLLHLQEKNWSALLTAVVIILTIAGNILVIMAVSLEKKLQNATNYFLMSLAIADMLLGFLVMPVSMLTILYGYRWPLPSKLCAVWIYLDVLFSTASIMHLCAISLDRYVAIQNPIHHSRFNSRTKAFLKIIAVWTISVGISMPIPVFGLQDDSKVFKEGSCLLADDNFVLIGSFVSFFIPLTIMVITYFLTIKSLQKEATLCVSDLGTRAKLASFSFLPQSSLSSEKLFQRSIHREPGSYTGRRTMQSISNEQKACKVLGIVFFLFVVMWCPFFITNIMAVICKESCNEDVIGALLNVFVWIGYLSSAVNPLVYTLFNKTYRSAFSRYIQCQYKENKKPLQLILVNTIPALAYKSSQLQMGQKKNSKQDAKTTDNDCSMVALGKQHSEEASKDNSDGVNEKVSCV
T2 sequence (P14416 whole entry): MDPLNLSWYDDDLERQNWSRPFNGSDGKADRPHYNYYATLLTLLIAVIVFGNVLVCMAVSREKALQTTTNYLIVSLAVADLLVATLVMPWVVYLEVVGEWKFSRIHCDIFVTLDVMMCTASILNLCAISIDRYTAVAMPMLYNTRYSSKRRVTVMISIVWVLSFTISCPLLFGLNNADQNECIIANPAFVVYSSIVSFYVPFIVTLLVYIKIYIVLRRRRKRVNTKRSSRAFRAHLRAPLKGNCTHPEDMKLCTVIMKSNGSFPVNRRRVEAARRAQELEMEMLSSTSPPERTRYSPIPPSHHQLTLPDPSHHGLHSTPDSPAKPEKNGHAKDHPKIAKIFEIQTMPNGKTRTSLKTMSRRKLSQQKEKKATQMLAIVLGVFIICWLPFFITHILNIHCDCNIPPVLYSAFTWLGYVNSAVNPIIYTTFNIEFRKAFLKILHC

As to `CNCC1CC2c3ccccc3C(C)c3ccc(F)cc3C2O1` (single isomer, unassigned) [Compound 74], the “% metabolised” value in data set [1] is 9%. Further, the IC50 in data set [2] is 12.6 nM; in data set [3], 631 nM; in data set [4], 5.01 nM; in data set [5], 3.98 nM. The D2/NET in data set [3] was 0.74.
As to `C=C1c2ccccc2[C@H]2C[C@H](CN(C)C)O[C@@H]2c2ccccc21` [Compound 25], the IC50 was 12.6 nM in data set [2], 200 nM in data set [3], 12.6 nM in data set [4] and 3.98 nM in data set [5]. Further, the D2/NET in data set [3] is given as 0.85.
Turning to `C=C1c2ccccc2[C@H]2C[C@H](CN(C)C)O[C@@H]2c2cc(F)ccc21` [Compound 26], the “% metabolised” value in data set [1] is given as 2.6%.
For the compound `CNC[C@H]1C[C@@H]2c3ccccc3[C@H](O)c3ccc(F)cc3[C@H]2O1` [Compound 34], the IC50 in data set [2] was 31.6 nM; in data set [3] it was above 1000 nM; in data set [4] it was 20 nM; in data set [5] it was 5.01 nM. For the same compound, the D2/NET in data set [3] was below 0.77.
Consider `CN(C)C[C@H]1C[C@@H]2c3ccccc3[C@](C)(O)c3ccc(F)cc3[C@H]2O1` [Compound 41], for which the “% metabolised” value in data set [1] came out at 2.25%. Besides, the IC50 in data set [2] was 31.6 nM; in data set [3], above 1000 nM; in data set [4], 126 nM; in data set [5], 50.1 nM. The D2/NET in data set [3] is below 0.87.
Take `CNC[C@H]1C[C@@H]2c3ccccc3[C@@H](OC(C)C)c3ccc(F)cc3[C@H]2O1` [Compound 63]: the IC50 in data set [2] was 316 nM; in data set [3] it was above 10000 nM; in data set [4] it was 3980 nM; in data set [5], 100 nM. In data set [3], the D2/NET was below 0.92.
Consider `C[C@@H]1c2ccccc2[C@H]2C[C@H](CN(C)C)O[C@@H]2c2cc(F)ccc21` [Compound 66], for which, in data set [1], the “% metabolised” value is given as 11.35%. In addition, the IC50 in data set [2] is 25.1 nM; in data set [3], 316 nM; in data set [4], 31.6 nM; in data set [5], 3.98 nM. Also, the D2/NET in data set [3] was determined as 0.86.
Regarding `NC[C@H]1C[C@@H]2c3ccccc3[C@@H](O)c3ccc(F)cc3[C@H]2O1` [Compound 104], the IC50 in data set [2] is 12.6 nM; in data set [3], 7940 nM; in data set [4], 200 nM; in data set [5], 2.51 nM. Also, the D2/NET in data set [3] amounted to 0.60.
In the case of `CCNC[C@H]1C[C@@H]2c3ccccc3[C@H](O)c3ccc(F)cc3[C@H]2O1` [Compound 107], the IC50 in data set [2] was 20 nM; in data set [3], 1580 nM; in data set [4] it was 158 nM; in data set [5], 6.31 nM. The D2/NET in data set [3] was 0.86.
The corresponding values for `CCNC[C@H]1C[C@@H]2c3ccccc3[C@@H](OC)c3ccc(F)cc3[C@H]2O1` [Compound 110] are 1260 nM, above 10000 nM, 10 nM, 398 nM and below 0.62.
